Like-named read-outs stand apart in the source and are kept apart here.
How the values were obtained:
HSV-1 = experiment: Plaque reduction assay (PRA), HSV-1 in Vero cells; assay type: cell-based, herpes simplex 1; conditions: for antiviral activity by PRA: wild-type HSV-1; for in vitro antiviral activity (concluding summary, words): HSV-1; for factor by which less active than ACV (IC50): representative wild-type HSV strains, PRA
Procedure: (§1) Top leading compounds were purchased from Sigma-Aldrich or ChemBridge for in vitro testing. On the day of the assay, compounds were prepared in DMSO at a concentration of 10 mM. Stock solutions were then diluted in Eagle's minimal essential medium (MEM) to the appropriate concentrations. ACV, GCV and FOS (prepared in MEM) were used as comparators for susceptible and resistant recombinant viruses and clinical isolates.
(§2) Antiviral activity of compounds 1 to 8 was first tested at two concentrations, i.e. 1 μM and 10 μM, along with currently-available first-line drugs (ACV for HSV/VZV and GCV for CMV). Then, 50% inhibitory concentration (IC50) values were determined for the top leading compounds in comparison with ACV, GCV and FOS using a standard plaque reduction assay (PRA). Briefly, Vero cells or HFFs seeded in 24-well plates were inoculated with 40 plaque forming units (PFUs) of recombinant viruses or clinical isolates. Infected cells were incubated with serial drug concentrations for appropriate periods of time. Cells were fixed and stained. The number of plaques was counted in each well and expressed in percentage of the PFUs in no-drug control wells. Recombinant and clinical viral strains were considered resistant to a drug if their IC50 values were at least 2.5 times greater than that of the representative wild-type strains.

VZV = experiment: Plaque reduction assay (PRA), VZV in HFFs; assay type: cell-based, varicella zoster virus; conditions: for antiviral activity by PRA: ACV-resistant VZV strains; for in vitro antiviral activity (concluding summary, words): VZV
Procedure: as §1, §2

CMV = experiment: Plaque reduction assay (PRA), CMV in HFFs; assay type: cell-based, cytomegalovirus; conditions: for antiviral activity by PRA: wild-type CMV isolate
Procedure: as §1, §2

HSV-2 = experiment: Plaque reduction assay (PRA), HSV-2 in Vero cells; assay type: cell-based, herpes simplex 2; conditions: for antiviral activity by PRA: wild-type HSV-2; for in vitro antiviral activity (concluding summary, words): HSV-2; for factor by which less active than ACV (IC50): representative wild-type HSV strains, PRA
Procedure: as §1, §2

[1] = Microsomal stability in rat liver microsomes; assay type: in vitro ADME; conditions: Sprague-Dawley; for half-life at 2 μM: rat liver microsomes 1 mg/ml, 2 μM compound, 37° C., NADPH, read-out: Half-life (t1/2); for CLint scaled at 2 μM: rat liver microsomes
Procedure: Sprague-Dawley rat liver microsomes (concentration 1 mg/ml) were incubated at 37° C. with 2 μM of compounds 2 or 3 in PBS containing 5 mM MgCl2 and 1 mM NADPH. The antihypertensive drug reserpine was used as a reference compound. Aliquots of 50 μl were withdrawn at different time intervals and placed in 96-well plates containing 50 μL of acetonitrile on ice. Samples were then mixed and centrifuged at 3000 rpm and 10 μL were injected in a liquid chromatography system (Agilent 1100 Binary Pumps). The aliquots from liquid chromatography were subjected to mass spectrometry analysis on SCIEX API4000 with TurboIonSpray ionization source to determine the remaining percentage of the parent compound. Intrinsic clearance (Clint) estimates were determined using the rate of parent compound disappearance. The slope (-k) was determined by linear regression analysis from the linear portion of the natural logarithm of the test compound concentration versus time plot. The […] (t1/2) was calculated according to k=ln 2/t1/2. The microsomal Clint can be derived from the equation Clint=kVfu (mL/min/mg protein) where fu is the unbound fraction and V is the volume of the incubation expressed in milliliters per mg of microsomal protein. As fu is not known for the tested compounds, the calculation was performed with fu=1 (V). The Clint was also extrapolated to the whole liver protein.

Vero cells = experiment: MTS cell proliferation (cytotoxicity) assay on Vero cells; conditions: for therapeutic index (CC50/IC50): CC50 Vero cells, IC50 of the HSV-1 reference strain (H25); for toxicity (CC50) compared with ACV, GCV and FOS: Vero cells, MTS assay
Procedure: (§3) Human foreskin fibroblasts (HFFs) and African green monkey kidney cells (Vero) were grown in MEM supplemented with 10% fetal bovine serum. Cells were maintained at 37° C. in a humidified 5% CO2 atmosphere. Vero cells and HFFs were used for propagation of viral strains and susceptibility assays for HSV-1/HSV-2 and VZV/CMV, respectively. Clinical strains H25 (HSV-1), HSV22 (HSV-2) as well as laboratory strains KOS(HSV-1), Ellen (VZV) and AD169 (CMV) were used as wild-type susceptible reference isolates. Clinical strains C119629 (HSV-1), C114093 (HSV-1), C80249 (HSV-1), L920062 (HSV-1), MS2 (HSV-2), C75134 (HSV-2), W-940012 (HSV-2), C72984 (HSV-2), D-900180 (HSV-2), M-890546 (HSV-2), P-920056 (HSV-2) and GB2000VZV (VZV) as well as laboratory strains Xbaf (CMV) and VQA3 (CMV) were used as drug (ACV/GCV/FOS)— resistant isolates. All clinical strains starting with the letter C originated from the Quebec City clinical virology laboratory.
(§4) This assay is based on the use of solutions of a tetrazolium salt (3-(4,5-dimethylthiazol-2-yl)-5-(3-carboxymethoxyphenyl)-2-(4-sulphophenyl)-2H-tetrazolium, inner salt; MTS) and an electron coupling reagent (phenazine methosulfate; PMS). The tetrazolium salt is reduced by living cells to yield a formazan product that can be assayed colorimetrically. Briefly, HFFs and Vero cells were seeded in 96-well plates. After 24 h, media was aspirated and 100 μl of compounds diluted in MEM at concentrations up to 100 μM were added to wells in quaduplicate. After incubation at 37° C. for 3 days, 10 μl of a solution of MTS and PMS were added to each well. The plates were incubated at 37° C. for 2 h. The absorbance of the supernatant was read at a wavelength of 492 nm to measure cell viability compared to no-drug control wells. The drug concentration was plotted against the optical density of each sample and cellular toxicity (CC50) was calculated using GraphPad Prism version 5.0 (GraphPad Inc., La Jolla, Calif., USA).

[2] = system: Human foreskin fibroblasts (HFFs); experiment: MTS cell proliferation (cytotoxicity) assay on HFFs; conditions: for toxicity (CC50) compared with ACV, GCV and FOS: HFFs, MTS assay
Procedure: as §3, §4

[3] = Parallel Artificial Membrane Permeability Assay (PAMPA); assay type: in vitro ADME; conditions: for Papp at 5 h: 5 h incubation, n=4, read-out: apparent permeability coefficient (Papp)
Procedure: Passive membrane permeability was determined using Parallel Artificial Membrane Permeability Assay (PAMPA). Initial concentrations of compounds 2 and 3 used for this assay were 37 and 2.5 respectively. Membrane area was 0.3 cm^2. After a 5 h incubation, fractions were taken on both sides of the membrane and compound concentrations were determined by LC-MS/MS. The apparent permeability coefficient (Papp) was calculated using the equation Papp=(dQ/dtAc0), where dQ/dt is the appearance rate of compound in the acceptor compartment, A is the surface area of the transwell membrane, and co is the initial concentration in the donor compartment.

[4] = fu=1, read-out: intrinsic clearance (Clint) extrapolated to whole rat liver

In the case of O=C(CNC(=O)c1cccc2ccccc12)N/N=C/c1ncccc1O [Compound C2.11, N-(2-{(2E)-2-[(3-hydroxypyridin-2-yl)methylidene)hydrazinyl}-2-oxoethyl)naphthalene-1-carboxamide], the “antiviral activity by PRA” value (HSV-1) is reported as “not against HSV-1”, the “antiviral activity by PRA” value (VZV) is reported as “active” and the “antiviral activity by PRA” value (CMV) is reported as “not active”. The “antiviral activity by PRA” value (HSV-2) was “active”.

In the case of COC(=O)[C@H]1[C@H]2C[C@@H]3c4[nH]c5cc(OC)ccc5c4CCN3C[C@H]2C[C@@H](OC(=O)c2cc(OC)c(OC)c(OC)c2)[C@@H]1OC [reserpine, reference compound], the half-life at 2 μM [1] is reported as 43 min and the CLint scaled at 2 μM ([1]; reference compound, read-out: intrinsic clearance (Clint)) is reported as 28 mL/min/kg.

For O=C(CNC(=O)c1cccc2ccccc12)N/N=C/c1ccc(F)cc1O [Compound C2.20, N-{2-[(2E)-2-(4-fluoro-2-hydroxybenzylidene)hydrazinyl]-2-oxoethyl}naphthalene-1-carboxamide], the “therapeutic index (CC50/IC50)” value (Vero cells) was 9.6, the “in vitro antiviral activity (concluding summary, words)” value (from here on “in vitro antiviral activity”) (HSV-1) was “retained excellent activity” and the “antiviral activity by PRA” value (HSV-1) was “as active”. For the same molecule, the “antiviral activity by PRA” value (VZV) was “as active”, the “in vitro antiviral activity” value (VZV) was “retained excellent activity” and the “antiviral activity by PRA” value (CMV) was “not active”. The “in vitro antiviral activity” value (HSV-2) was “retained excellent activity” and the “antiviral activity by PRA” value (HSV-2) was “as active”.

With O=C(CNC(=O)c1cccc2ccccc12)N/N=C/c1ccccc1O [Compound 2, N-{2-[(2E)-2-(2-hydroxybenzylidene)hydrazinyl]-2-oxoethyl}naphthalene-1-carboxamide] the half-life at 2 μM [1] was 33 min, the CLint scaled at 2 μM [1, 4] was 37 mL/min/kg and the “toxicity (CC50) compared with ACV, GCV and FOS” value [2] was “somewhat more toxic”. The permeability class [3] was “high (high (Papp>10))”, the Papp at 5 h [3] was 11.3 ± 1.17 ×10⁻⁶ cm/s and the “therapeutic index (CC50/IC50)” value (Vero cells) was 19.3. For the same molecule, the “toxicity (CC50) compared with ACV, GCV and FOS” value (Vero cells) was “somewhat more toxic”, the “IC50 value increases compared to the representative wild-type strains” value (HSV-1; ACV- and/or FOS-resistant HSV-1 strains, Vero cells) was 0.7 to 1.7 fold and the “in vitro antiviral activity” value (HSV-1) was “highly active”. For the same molecule, the “factor by which less active than ACV (IC50)” value (HSV-1) was 2 to 3 fold, the “in vitro antiviral activity” value (VZV) was “highly active” and the “factor by which less active than ACV (IC50)” value (VZV; representative wild-type VZV strain, PRA) was 2 to 3 fold. For the same molecule, the “IC50 value increases compared to the representative wild-type strains” value (HSV-2; ACV- and/or FOS-resistant HSV-2 strains, Vero cells) was 0.7 to 1.7 fold, the “in vitro antiviral activity” value (HSV-2) was “highly active” and the “factor by which less active than ACV (IC50)” value (HSV-2) was 2 to 3 fold.

For COc1ccc(O)c(C=NNC(=O)CNC(=O)c2cccc3ccccc23)c1 [Compound 9, N-(2-(2-(2-hydroxy-5-methoxybenzylidene)hydrazino)-2-oxoethyl)-1-naphthamide], the “factor by which less active than ACV (IC50)” value (HSV-1) was 3 to 4 fold and the “factor by which less active than ACV (IC50)” value (HSV-2) was 3 to 4 fold.

For “3-chloro-N-(2-{2-[(E)-2-(1-hydroxynaphthalen-2-yl)ethenyl]hydrazinyl}-2-oxoethyl)benzamide [Compound C3-2]”, the “antiviral activity by PRA” value (HSV-1) was “not active”, the “antiviral activity by PRA” value (VZV) was “not active” and the “antiviral activity by PRA” value (CMV) was “not active”. The “antiviral activity by PRA” value (HSV-2) was “not active”.

With O=C(CNC(=O)c1cccc2ccccc12)N/N=C/c1c(O)cccc1O [Compound C2.05, N-{2-[(2E)-2-(2,6-dihydroxybenzylidene)hydrazinyl]-2-oxoethyl}naphthalene-1-carboxamide] the “antiviral activity by PRA” value (HSV-1) was “active against wild-type HSV-2 only”, the “antiviral activity by PRA” value (VZV) was “active against wild-type HSV-2 only” and the “antiviral activity by PRA” value (CMV) was “not active”. The “antiviral activity by PRA” value (HSV-2) was “active”.

For C=CCc1cccc(/C=N/NC(=O)CNC(=O)c2cccc(Cl)c2)c1O [Compound 3, 3-chloro-N-(2-{(2E)-2-[2-hydroxy-3-(prop-2-en-1-yl)benzylidene]hydrazinyl}-2-oxoethyl)benzamide], the half-life at 2 μM [1] was 22 min, the CLint scaled at 2 μM [1, 4] was 62 mL/min/kg and the “therapeutic index (CC50/IC50)” value ([2]; CC50 HFFs, IC50 of the CMV reference strain (AD169)) was 6.6. For the same molecule, the “toxicity (CC50) compared with ACV, GCV and FOS” value [2] was “somewhat more toxic”, the permeability class [3] was “intermediate (intermediate (1<Papp<10))” and the Papp at 5 h [3] was 3.4 ± 0.45 ×10⁻⁶ cm/s. For the same molecule, the “toxicity (CC50) compared with ACV, GCV and FOS” value (Vero cells) was “somewhat more toxic”, the “in vitro antiviral activity” value (CMV; CMV) was “highly active” and the “factor by which less active than GCV (IC50)” value (CMV; CMV reference strain, PRA) was 2 fold. For the same molecule, the “IC50 value increases compared to the representative wild-type strain” value (CMV; GCV- and/or FOS-resistant CMV strains, HFF cells) was 1 to 2 fold.

For Cc1cccc(/C=C/NNC(=O)CNC(=O)c2cccc(Cl)c2)c1O [Compound C3-1, 3-chloro-N-(2-{2-[(E)-2-(2-hydroxy-3-methylphenyl)ethenyl]hydrazinyl}-2-oxoethyl)benzamide], the “antiviral activity by PRA” value (HSV-1) was “not active”, the “antiviral activity by PRA” value (VZV) was “not active” and the “antiviral activity by PRA” value (CMV) was “not active”. For the same molecule, the “antiviral activity by PRA” value (HSV-2) was “not active”.
